Assay results as given in paper PMC8199755, “In Vitro and In Vivo Trypanocidal Efficacy of Synthesized Nitrofurantoin Analogs” (Molecules, 2021).

Legend:
T. b. gambiense IL1922 = test: In vitro trypanocidal activity (CellTiter-Glo, 3 days); format: cell-based; settings: Trypanosoma brucei, 72 h, bloodstream forms, 37 °C, mean ± SD of triplicate, read-out: Trypanocidal Activity IC50 ± SD, Tbg IL1922
Experimental: (§1) The bloodstream forms of T. b. brucei GUTat3.1, T. b. rhodesiense IL1501, T. b. rhodesiense Chirundu, T. b. gambiense IL1922, and T. evansi Tansui strains were propagated in culture at 37 °C, whereas the T. congolense IL3000 strain was propagated at 33 °C in Hirumi’s modified Iscove’s medium-9, supplemented with 20% heat-inactivated fetal bovine serum. The bloodstream form cultures were maintained by replacing the entire culture supernatant with fresh medium, every other day.
(§2) The trypanocidal activity and cytotoxicity of nitrofurantoin analogs were evaluated according to previous reports, with some modifications. In brief, bloodstream forms adjusted at 2.5 × 10^3 cells/mL (T. b. brucei GUTat3.1, T. b. gambiense IL1922, and T. b. rhodesiense IL1501), 1 × 10^4 cells/mL (T. evansi Tansui and T. b. rhodesiense Chirundu), and 1 × 10^5 cells/mL (T. congolense IL3000), were cultivated in Nunc® MicroWell 96-well optical bottom plates (Thermo Fisher Scientific, Waltham, MA, USA) and exposed to various analogs at seven different concentrations for 3 days, in an incubator at 37 °C (33 °C for T. congolense IL3000). […] Twenty-five microliters of the Cell-TiterGlo® (Promega, Madison, WI, USA) reagent was added into each well, and bioluminescence was measured using a GloMax®-Multi+Detection System plate reader (Promega).
(§3) The half maximum inhibitory concentration (IC50) of each analog in trypanosomes and the Madin–Darby bovine kidney cells was calculated using the GraphPad Prism version 8 software (GraphPad, Inc., San Diego, CA, USA).

T. b. rhodesiense IL1501 = test: as above; format: cell-based; settings: Trypanosoma brucei, 72 h, bloodstream forms, 37 °C, mean ± SD of triplicate, read-out: Trypanocidal Activity IC50 ± SD, Tbr IL1501
Experimental: as §1, §2, §3

T. congolense IL3000 [1] = test: as above; format: cell-based; settings: Trypanosoma congolense, 72 h, bloodstream forms, 33 °C, mean ± SD of triplicate, read-out: Trypanocidal Activity IC50 ± SD, Tc IL3000
Experimental: as §1, §2, §3

T. evansi Tansui = test: as above; format: cell-based; settings: 72 h, bloodstream forms, 37 °C, mean ± SD of triplicate, read-out: Trypanocidal Activity IC50 ± SD, Tev Tansui
Experimental: as §1, §2, §3

T. b. brucei GUTat3.1 = test: as above; format: cell-based; settings: Trypanosoma brucei, 72 h, bloodstream forms, 37 °C, mean ± SD of triplicate, read-out: Trypanocidal Activity IC50 ± SD, Tbb GUTat3.1
Experimental: as §1, §2, §3

[2] = system: T. b. rhodesiense Chirundu; test: as above; format: cell-based; settings: Trypanosoma brucei, 72 h, bloodstream forms, 37 °C, mean ± SD of triplicate, read-out: Trypanocidal Activity IC50 ± SD, Tbr Chirundu
Experimental: as §1, §2, §3

T. congolense IL3000 [3] = test: In vivo treatment efficacy in mice infected with T. congolense; design: species or system BALB/c mice; settings: for time by which all mice died because of high parasitemia: intraperitoneal injection at 0.1 mg/kg; for time by which all mice died because of high parasitemia / time by which all mice succumbed to high parasite levels: 7 consecutive days from 2 dpi
Experimental: Healthy female 8-week-old BALB/c mice (CLEA Japan, Inc., Tokyo, Japan) were used in this study. All animals had ad libitum access to normal chow and water.
The virulent T. congolense IL3000 strain was propagated in a mouse and used for infection. The parasites were passaged once in a mouse before the experiment. The experimental mice were intraperitoneally infected with 100 μL of T. congolense in phosphate-buffered saline, containing 10% glucose at 1 × 10^3 cells/mouse. First, the mice were randomly divided into six groups of three mice, each as follows. Group I (no treatment), mice were not infected and were only treated with solvent (10% dimethyl sulfoxide–phosphate–buffered saline). Group II received 3.5 mg/kg of diminazene aceturate treatment. Groups III (9), IV (11), V (12), and VI were treated with nitrofurantoin and the mice were infected and intraperitoneally treated with 0.1 mg/kg of the compound.
In the second experiment, the mice were randomly divided into six groups of three mice, each as follows—group I received no treatment; group II received 3.5 mg/kg of diminazene aceturate treatment; and groups III (9), IV (11), V (12), and VI received nitrofurantoin—the mice were infected and orally treated with 10 mg/kg of the compound.
Treatment was initiated at 2 days post-infection (dpi) and continued for seven consecutive days. The treatments were freshly prepared each day. Parasitemia was observed using a cell counting chamber until 14 dpi.

[4] = Cytotoxicity (Cell Counting Kit-8, 3 days); format: cell-based, bovine; settings: bovine, Madin–Darby bovine kidney (MDBK) cells, 37 °C, mean ± SD of triplicate
Experimental: (§4) Additionally, Madin–Darby bovine kidney cells were cultivated (density, 1 × 10^4 cells/mL) in a 96-well cell culture plate (Thermo Fisher Scientific) with the analogs, at seven different concentrations for 3 days at 37 °C. Next, 10 µl of the Cell Counting Kit-8 solution (Dojindo, Kumamoto, Japan) was added into each well […] 4 h of incubation. Absorbance was measured at 450 nm using a GloMax®-Multi+Detection System plate reader.
as §3

[5] = system: Madin–Darby bovine kidney cells; test: Cytotoxicity (Cell Counting Kit-8, 3 days); format: cell-based; settings: MDBK cells, 37 °C, mean ± SD of triplicate
Experimental: as §4, §3

[6] = system: six species/strains of animal and human trypanosomes; test: In vitro trypanocidal activity, summary over all strains; format: cell-based; settings: over the six trypanosome species/strains
Experimental: as §1
The trypanocidal activity and cytotoxicity of nitrofurantoin analogs were evaluated according to previous reports, with some modifications. […] Twenty-five microliters of the Cell-TiterGlo® (Promega, Madison, WI, USA) reagent was added into each well, and bioluminescence was measured using a GloMax®-Multi+Detection System plate reader (Promega).
as §3

mycobacterial = system: mycobacterial; design: method as in PMID 32044516; settings: more potent than nitrofurantoin; cited from earlier work
[7] = after both oral (10 mg/kg) and intraperitoneal (0.1 mg/kg) administration
[8] = oral, 10 mg/kg, T. congolense-infected mice

Row | SMILES | IC50 (T. b. gambiense IL1922) [nM] | IC50 (T. b. rhodesiense IL1501) [nM] | IC50 (T. congolense IL3000 [1]) [nM] | IC50 (T. evansi Tansui) [nM] | IC50 (T. b. brucei GUTat3.1) [nM] | IC50 [2] [nM] | treatment efficacy against T. congolense infection in vivo (T. congolense IL3000 [3]; [7]) | time by which all mice died because of high parasitemia (T. congolense IL3000 [3]; T. congolense-infected mice) [dpi] | time by which all mice succumbed to high parasite levels (T. congolense IL3000 [3]; [8]) [dpi] | IC50 at 3 days [4] [nM] | IC50 [5] [nM] | IC50 [6] [nM] | anti-mycobacterial potency relative to nitrofurantoin (mycobacterial) [fold] | treatment efficacy against T. congolense infection in vivo (T. congolense IL3000 [3]; oral treatment, 10 mg/kg) | mice surviving until end of the experiment period (T. congolense IL3000 [3]; oral, 10 mg/kg, three mice per group, observed until 14 dpi) | parasitemia (T. congolense IL3000 [3]; group II, 3.5 mg/kg, T. congolense-infected mice)
1 | CCCCCCCCCN1C(=O)CN(/N=C/c2ccc([N+](=O)[O-])o2)C1=O [Analog 9, (E)-1-([(5-Nitrofuran-2-yl)methylene]amino)-3-nonylimidazolidine-2,4-dione] | 440 ± 170 | 600 ± 540 | 10 ± 3.5 | 270 ± 25 | 570 ± 220 | 17 ± 6.7 | no treatment efficacy | ≤ 9 | ≤ 9 | 251000 ± 58300 | – | – | – | – | – | –
2 | CCCCCCCCCCCN1C(=O)CN(/N=C/c2ccc([N+](=O)[O-])o2)C1=O [Analog 11, (E)-1-([(5-Nitrofuran-2-yl)methylene]amino)-3-undecylimidazolidine-2,4-dione] | 330 ± 120 | 240 ± 130 | 11 ± 3.5 | 160 ± 14 | 330 ± 120 | 21 ± 9.4 | no treatment efficacy | ≤ 9 | ≤ 9 | > 246000 | > 255000 | < 340 | – | – | – | –
3 | CCCCCCCCN1C(=O)CN(/N=C/c2ccc([N+](=O)[O-])o2)C1=O [Analog 8, (E)-1-([(5-Nitrofuran-2-yl)methylene]amino)-3-octylimidazolidine-2,4-dione] | 1400 ± 730 | 1380 ± 820 | 30 ± 5 | 810 ± 82 | 1890 ± 690 | 39 ± 8.4 | – | – | – | 84700 ± 8990 | – | – | 30 | – | – | –
4 | CCCCCCCCCCCCN1C(=O)CN(/N=C/c2ccc([N+](=O)[O-])o2)C1=O [Analog 12, (E)-3-Dodecyl-1-([(5-nitrofuran-2-yl)methylene]amino)imidazolidine-2,4-dione] | 230 ± 130 | 260 ± 110 | 12 ± 4.5 | 200 ± 17 | 340 ± 120 | 31 ± 11 | no treatment efficacy | ≤ 9 | ≤ 9 | > 246000 | – | < 340 | – | – | – | –
5 | O=C1CN(/N=C/c2ccc([N+](=O)[O-])o2)C(=O)N1 [Nitrofurantoin] | 1620 ± 280 | 1420 ± 250 | 360 ± 43 | 1960 ± 500 | 1420 ± 150 | – | – | ≤ 9 | – | – | – | – | – | partial efficacy | two of three | –
6 | CC(=O)NCC(=O)O.CC(=O)NCC(=O)O.N=C(N)c1ccc(N=NNc2ccc(C(=N)N)cc2)cc1 [diminazene aceturate, reference compound] | – | – | – | – | – | – | – | – | – | – | – | – | – | – | – | not observed
